Laboratory results published in US20250197428A1, “INHIBITORS OF KIF18A AND USES THEREOF” (ACCENT THERAPEUTICS, INC., priority 2022, published 2025).

Legend:
[1] = Caco-2 permeation assay, bidirectional permeability; type: in vitro ADME; conditions: human, Caco-2, pH 7.4, 5 μM, Papp(B-A)/Papp(A-B)
Summary of the method: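 Bidirectional A→B and B→A transport of 5 μM compound in HBSS (10 mM HEPES, pH 7.4), receiver containing 2% BSA, 2 h at 37 °C on 14-day monolayers. Papp from LC-MS/MS peak areas; efflux ratio Papp(B-A)/Papp(A-B), plus recovery. Lucifer Yellow leakage <1% required for monolayer acceptance.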

[2] = Tolerability (body weight) in 28 day OVCAR-3 xenograft study; type: in vivo; conditions: all concentrations dosed, 28 day treatment

With Cc1cc(NC(=O)c2ccc(NS(=O)(=O)CCO)cc2N2CC[C@@]3(C(F)F)C[C@H]3C2)nc(N2CCC(F)(F)CC2)n1 (single isomer, unassigned) [Example 29b] the efflux ratio at 2 h, 5 μM [1] was no less than 10 and the “Tolerability based on body weight” value [2] was “well tolerated”.
